Experimental data from publication PMC4317927 (Cancer Science, 2014).

Key:
[1] = molecular target: T1, NF-κB (p52) (Homo sapiens, UniProt Q00653); assay: DSE-FRET DNA-binding
T1 sequence (Q00653 1-454 limits assumed): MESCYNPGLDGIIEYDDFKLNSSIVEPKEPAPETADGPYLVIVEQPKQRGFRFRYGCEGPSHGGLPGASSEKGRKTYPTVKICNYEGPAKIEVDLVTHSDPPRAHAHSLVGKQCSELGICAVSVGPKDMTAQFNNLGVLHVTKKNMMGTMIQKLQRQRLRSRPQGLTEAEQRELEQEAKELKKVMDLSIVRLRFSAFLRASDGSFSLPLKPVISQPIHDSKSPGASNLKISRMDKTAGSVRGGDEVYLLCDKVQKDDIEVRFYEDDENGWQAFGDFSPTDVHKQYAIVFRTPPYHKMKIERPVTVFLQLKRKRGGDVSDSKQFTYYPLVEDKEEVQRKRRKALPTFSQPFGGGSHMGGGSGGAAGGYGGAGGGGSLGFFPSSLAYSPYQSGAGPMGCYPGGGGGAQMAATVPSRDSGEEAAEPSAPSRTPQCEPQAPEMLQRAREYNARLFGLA

[2] = molecular target: T2, NF-κB (p50) (Homo sapiens, UniProt P19838); assay: DSE-FRET DNA-binding
T2 sequence (P19838 1-433 limits assumed): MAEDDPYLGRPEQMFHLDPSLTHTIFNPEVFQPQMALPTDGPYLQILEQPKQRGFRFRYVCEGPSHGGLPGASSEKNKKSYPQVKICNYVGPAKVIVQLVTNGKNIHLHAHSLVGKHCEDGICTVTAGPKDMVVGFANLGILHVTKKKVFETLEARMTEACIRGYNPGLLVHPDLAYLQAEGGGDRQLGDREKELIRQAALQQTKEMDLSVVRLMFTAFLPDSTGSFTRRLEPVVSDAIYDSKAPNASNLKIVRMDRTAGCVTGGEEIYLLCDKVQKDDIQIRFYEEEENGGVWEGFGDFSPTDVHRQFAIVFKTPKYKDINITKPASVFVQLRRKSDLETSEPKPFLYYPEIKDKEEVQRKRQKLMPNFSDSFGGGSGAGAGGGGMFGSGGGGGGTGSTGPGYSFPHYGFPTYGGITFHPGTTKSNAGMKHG

[3] = molecular target: GST-NF-kB p50 (human, UniProt P19838 1-433); assay: DSE-FRET

Cc1cc(-c2ccc(/N=N/c3ccc4c(S(=O)(=O)O)cc(S(=O)(=O)O)c(N)c4c3O)c(C)c2)ccc1/N=N/c1ccc2c(S(=O)(=O)O)cc(S(=O)(=O)O)c(N)c2c1O [EB, Evans Blue]
IC50 [1]: 12.8 µM
IC50 [2]: 12.9 µM

O=C(NC1=CC(=O)[C@H]2O[C@H]2[C@H]1O)c1ccccc1O [(−)-DHMEQ]
IC50 [1]: 62.5 µM
IC50 [2]: 8.8 µM

B1: NF-D1 (NF-01F/NF-14D) (dsDNA)
DNA 1: AGTTGAGGGGACTTTCCCAGGCGACTCACTATAGGCGGTGTCTCGCTCGC
DNA 2: GGGAATGGTGTGGTGCCTATAGTGAGTCGCCTGGGAAAGTCCCCTCAACT
apparent K (half saturation) [3]: ~40 nM
